Target: monoclonal antibody products
Details: binding to monoclonal antibody products; read-out: dissociation constant (KD)

`Nc1cccc(Nc2nc(NCCO)nc(NCC(O)CNc3nc(NCCO)nc(Nc4cccc(N)c4)n3)n2)c1` [Compound 1, 1,3-bis({4-[(3-aminophenyl)amino]-6-[(2-hydroxyethyl)amino]-1,3,5-triazin-2-yl}amnio)propan-2-ol] was tested, and the Kd was < 1 µM.
